The test system of one assay is B. subtilis 011085. As to the kind of experiment: B. subtilis capillary accumulation assay. It is filed as cell-based, Bacillus subtilis. An excerpt: FIG. 4: Results of B. subtilis capillary accumulation assays using ROMP-derived glucose ligands (compound 5-7, Scheme 1). Buffer alone, glucose, or glucose-bearing compounds 5-7 were used as attractants in the capillary accumulation assay. Results are shown for glucose, compound 5, compound 6, and compound 7. Results are the average of at least four trials performed in duplicate and error bars represent single standard deviations.
To test the generality of the observed valency-dependent differences in chemotactic activities and to investigate the role of membrane permeability in responses to our ligands, chemotactic experiments in B. subtilis were conducted. B. subtilis is a gram-positive bacterium that, like gram-negative E. coli, is able to respond to saccharide chemoattractants. In the case of B. subtilis, the multivalent ligands can directly interact with saccharide-sensing receptors, without having to first traverse the outer membrane. Glucose is a chemoattractant for B. subtilis, but galactose is not. Glucose-carrying ligands (compounds 5-7, Scheme 1) were effective chemoattractants for B. subtilis as shown in capillary accumulation assays. […] Free chemoattractant signal glucose had maximal activity as a chemoattractant at 0.5 mM. In analogy to observations with E. coli, as the valency of the ligand increases, the saccharide residue concentration of maximum chemotaxis decreases. […] The results observed indicate that in evolutionarily divergent bacteria E. coli and B. subtilis, the valency of the attractant influences chemotactic response.
E. coli from an overnight culture were grown in LB to OD550 0.4-0.6, washed twice with E. coli chemotaxis buffer, and then partially permeabilized. Bacteria were resuspended in chemotaxis buffer to an OD550 0.1 and utilized in the capillary accumulation assay at 30° C. for 60 min, as previously described. […] Data was analyzed using the Q and Students tests.

The test system of assay [1] is bacterial chemoreceptors of E. coli AW405 or RP 1078 (cheW). As to the kind of experiment: immunofluorescence microscopy of chemoreceptor organization. The assay is classed as cell-based, Escherichia coli. Conditions: E. coli cheW mutants, 5 mM, anti-Tsr labeling. The protocol: Fluorescence microscopy experiments were performed to visualize changes in chemotaxis receptor organization upon treatment with saccharide-carrying ligands. These experiments can determine directly whether or not multivalent ligands can influence chemoreceptor reorganization. It had been shown that wild-type E. coli localize chemoreceptors to their poles and that inactivation of the structural protein, CheW, results in a random distribution of chemoreceptors on the cell. The ability of ROMP-derived arrays to localize the chemoreceptors was examined using E. coli cheWmutants. Bacteria were treated with 1, 3, or 4, fixed, and labeled with an antibody to the bacterial chemoreceptors (anti-Tsr). […]
To confirm the ability of multivalent ligands to alter the organization of the chemoreceptors in the bacterial membrane E. coli were treated with compound 8, a galactose-bearing multivalent ligand having a fluorescent label (Scheme 1). When E. coli were treated with 8 or a fluorescein-labeled anti-Tsr antibody 14, the fluorescence patterns observed were similar. […]
E. coli AW405 or RP 1078 (cheW) were pretreated with buffer alone or with compounds 1, 3, 4, or 8 at 5 mM in a 10 μL total volume of chemotaxis buffer. […] Fluorescence microscopy was performed on a Zeiss Axioscope at 1000×using an oil immersion lens. […]

For `O=C(NCCOC1OC(CO)C(O)C(O)C1O)C1C[C@@H]2C=CC1C2` (some centres unmarked) [Compound 1], in the assay with B. subtilis 011085, the “chemoattractant activity for B. subtilis” value is reported as “not chemoattractants”. Further, the “effect on chemoreceptor distribution” value in assay [1] was “no effect on receptor distribution”.

Source of the values: patent publication US20040248801A1, “Methods and reagents for regulation of cellular responses in biological systems” (priority 2000, published 2004).
